Test results from ChEMBL document CHEMBL6153067, “Transition State Analogs of Human DNPH1 Reveal Two Electrophile Migration Mechanisms” (J Med Chem, 2025).
The source made the active and inactive calls. The calls are words filed in the database; no cut-off is given here.

Legend:
[1] = target: T1, 5-hydroxymethyl-dUMP N-hydrolase (Homo sapiens, UniProt O43598); test: Competitive inhibition of wild-type truncated human DNPH1 extracted from Escherichia coli BL21DE3 using hmdUMP as substrate preincubated for 30 mins followed by substrate addition measured after 60 mins in presence of NADH
T1 sequence (O43598 whole entry): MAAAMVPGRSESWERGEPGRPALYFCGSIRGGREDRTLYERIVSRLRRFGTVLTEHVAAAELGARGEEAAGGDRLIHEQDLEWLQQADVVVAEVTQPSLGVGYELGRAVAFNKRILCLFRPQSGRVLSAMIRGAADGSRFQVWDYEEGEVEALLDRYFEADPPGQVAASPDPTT

[2] = target: T1, 5-hydroxymethyl-dUMP N-hydrolase; test: Inhibition of wild-type truncated human DNPH1 extracted from Escherichia coli BL21DE3 assessed as decrease in hmdUMP hydrolysis preincubated for 30 mins followed by hmdUMP addition measured after 30 mins in presence of NADH
[3] = target: T1, 5-hydroxymethyl-dUMP N-hydrolase; test: Binding affinity to DNPH1 (unknown origin) assessed as equilibrium constant
[4] = target: T2, 5-hydroxymethyl-dUMP N-hydrolase (Homo sapiens) (UniProt O43598); conditions: dose 1.0 mM, time 30.0 min
T2 sequence (whole entry): T1 sequence (O43598 whole entry)

[5] = target: T1, 5-hydroxymethyl-dUMP N-hydrolase; test: Binding affinity to wild-type truncated human DNPH1 extracted from Escherichia coli BL21DE3 assessed as dissociation constant by ITC analysis

Nc1nc2c(CN3C[C@H](COP(=O)(O)O)[C@@H](O)C3)c[nH]c2c(=O)[nH]1
Ki [1]: 6.5 µM

Nc1ncnc2c(CN3C[C@H](COP(=O)(O)O)[C@@H](O)C3)c[nH]c12
Ki [1]: 2.85 µM

O=c1[nH]c(=O)n([C@@H]2O[C@H](COP(=O)(O)O)[C@@H](O)[C@@H]2O)cc1CO
Kd [1]: > 50 µM | IC50 [2]: > 100 µM

O=P(O)(O)OC[C@H]1CN(Cc2ccc(F)nc2F)C[C@@H]1O
Ki [1]: 25.8 µM

O=c1[nH]c(=O)n([C@H]2C[C@H](O)[C@@H](CP(=O)(O)O)O2)cc1CO
Kd [3]: 6.3 µM

O=P(O)(O)OC[C@H]1CN(Cc2cncc(CO)c2)C[C@@H]1O
Ki [1]: 3.67 µM

O=P(O)(O)OC[C@H]1CN(Cc2cc(CO)c(F)nc2F)C[C@@H]1O
Ki [1]: 5.14 µM

O=P(O)(O)OC[C@H]1CN(Cc2cccnc2)C[C@@H]1O
Ki [1]: 20.7 µM

O=P(O)(O)OC[C@H]1CN(Cc2ccccc2)C[C@@H]1O
Ki [1]: > 50 µM

O=c1cc(CN2C[C@H](COP(=O)(O)O)[C@@H](O)C2)[nH]c(=O)[nH]1
Ki [1]: 5.17 µM

O=P(O)(O)OC[C@H]1CNC[C@@H]1OP(=O)(O)O
Ki [1]: > 50 µM

O=c1[nH]c(=O)n([C@@H]2O[C@H](COP(=O)(O)O)[C@@H](O)[C@H]2O)cc1CO
inhibition [4]: Active; Potent Than Ump | Kd [1]: 0.6 µM | IC50 [2]: 1.3 µM

O=P(O)(O)OC[C@H]1CNC[C@@H]1O
Ki [1]: 3.3 µM | Kd [5]: 1.3 µM

COc1nc(OC)c(CN2C[C@H](COP(=O)(O)O)[C@@H](O)C2)cc1F
Ki [1]: 12.3 µM

O=c1[nH]cc(CN2C[C@H](COP(=O)(O)O)[C@@H](O)C2)cc1CO
Ki [1]: 0.61 µM

O=c1[nH]cccc1CN1C[C@H](COP(=O)(O)O)[C@@H](O)C1
Ki [1]: 36.8 µM

O=c1[nH]c(=O)n([C@@H]2O[C@H](COP(=O)(O)O)[C@@H](O)[C@@H]2F)cc1CO
inhibition [4]: Active; Potent Than Ump | Kd [1]: 0.57 µM | IC50 [2]: 1.5 µM | Kd [5]: 0.43 µM

O=P(O)(O)OC[C@H]1NC[C@H](O)[C@@H]1O
Ki [1]: > 50 µM

O=P(O)(O)OC[C@H]1NCC[C@@H]1O
Ki [1]: > 50 µM

O=c1[nH]c(CN2C[C@H](COP(=O)(O)O)[C@@H](O)C2)c(CO)c(=O)[nH]1
Ki [1]: > 50 µM
